IC50 data for 3 compounds are collected here from BindingDB's records for patent US20250129067 (Progentos Therapeutics, 2025).

The experiment deals with Platelet-derived growth factor receptor alpha (Homo sapiens, UniProt P16234). Nature of the experiment: PDGFRα Kinase Assay. Here is the method: The PDGFRα enzyme assays were conducted per the manufacturer's directions (Promega PDGFRα Kinase Enzyme System and ADP Glo Assay Cat #V8011). […] 20 ng of purified PDGFRα protein was added to the test article. […] ADP-Glo was added to halt the kinase reaction and deplete the remaining ATP. Kinase detection reagent, containing luciferase and luciferin, was used to convert the ADP signal into luminescence. Luminescence was measured using a Molecular Devices Spectramax ID5 and compared to a standard curve to determine kinase activity. IC50s were calculated using Prism 9, Graphpad software.
Chain of Platelet-derived growth factor receptor alpha (P16234 whole entry): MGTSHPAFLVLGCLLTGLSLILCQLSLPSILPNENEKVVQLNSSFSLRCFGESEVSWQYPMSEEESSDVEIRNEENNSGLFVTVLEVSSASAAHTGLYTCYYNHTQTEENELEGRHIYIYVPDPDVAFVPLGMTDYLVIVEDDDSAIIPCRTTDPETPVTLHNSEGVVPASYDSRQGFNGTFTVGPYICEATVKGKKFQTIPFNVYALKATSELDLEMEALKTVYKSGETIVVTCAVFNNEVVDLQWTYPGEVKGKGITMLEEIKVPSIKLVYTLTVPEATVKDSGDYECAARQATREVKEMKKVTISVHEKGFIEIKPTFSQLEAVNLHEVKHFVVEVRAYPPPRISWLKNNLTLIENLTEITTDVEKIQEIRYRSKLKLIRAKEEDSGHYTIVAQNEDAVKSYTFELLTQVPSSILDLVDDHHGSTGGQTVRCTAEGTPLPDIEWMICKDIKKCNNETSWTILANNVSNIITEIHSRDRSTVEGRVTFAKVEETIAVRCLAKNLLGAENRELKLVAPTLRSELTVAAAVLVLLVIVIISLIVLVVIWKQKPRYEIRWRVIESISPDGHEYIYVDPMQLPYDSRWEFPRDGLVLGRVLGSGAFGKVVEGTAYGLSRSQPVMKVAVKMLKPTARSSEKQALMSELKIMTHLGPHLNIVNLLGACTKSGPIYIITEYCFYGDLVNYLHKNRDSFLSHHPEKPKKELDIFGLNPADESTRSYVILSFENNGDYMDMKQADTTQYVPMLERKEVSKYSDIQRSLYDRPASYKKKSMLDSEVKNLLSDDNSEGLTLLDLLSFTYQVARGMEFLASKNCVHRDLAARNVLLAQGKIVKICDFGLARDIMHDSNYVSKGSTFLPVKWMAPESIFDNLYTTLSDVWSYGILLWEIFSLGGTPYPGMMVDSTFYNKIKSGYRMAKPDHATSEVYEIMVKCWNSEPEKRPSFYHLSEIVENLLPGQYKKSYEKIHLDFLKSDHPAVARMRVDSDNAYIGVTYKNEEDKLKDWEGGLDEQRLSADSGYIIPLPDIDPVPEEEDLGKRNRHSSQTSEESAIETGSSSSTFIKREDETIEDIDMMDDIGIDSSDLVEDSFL
By IC50 is commonly meant the concentration at which inhibition is half-maximal. Turning to `CN(CCCN(C)c1cnn2cc(-c3cnn(C)c3)ccc12)c1ncc(Cc2ccccc2)cn1`, the IC50 is > 10 µM.

`Cn1cc(-c2ccc3c(N4CCN(c5ncc(C(O)Cc6ccccc6)cn5)CC4)cnn3c2)cn1` (stereo not drawn) [US20250129067, Compound 167] returned an IC50 of 0.107 µM.

Compound `Cn1cc(-c2ccn3c(N4CCN(C(=O)OC(C)(C)C)CC4)cnc3n2)cn1` [US20250129067, Compound 87] returned an IC50 of 5.94 µM. This IC50 is about 56-fold higher than that of the compound before.
